Test results reported in patent US20150276755A1, “METHODS FOR DETERMINING RESISTANCE AGAINST MOLECULES TARGETING PROTEINS” (AGENCY FOR SCIENCE, TECHNOLOGY AND RESEARCH, priority 2012, published 2015).
“Also recorded” adds a separate entry of the source.

Key:
[1] = target: purified HDM2 (amino acids 1-125) Q24R (human) (UniProt Q00987); test: competitive fluorescence anisotropy against FAM-12-1 peptide, apparent Kd
[2] = target: purified HDM2 (amino acids 1-125) M62A (human) (UniProt Q00987); test: as above
[3] = target: purified HDM2 (amino acids 1-125) P20L (human) (UniProt Q00987); test: as above
[4] = target: purified HDM2 (amino acids 1-125), wild-type (human) (UniProt Q00987); test: as above
[5] = target: T1, wild-type HDM2-p53 interaction (Homo sapiens, UniProt Q00987); test: In vitro pull-down (co-immunoprecipitation, Western blot), wild-type HDM2; type: biochemical; details: 10 μM
T1 construct: made in house; host or cells: cell-free in vitro transcription-translation (IVT)
Protocol: (§1) Protein G beads were incubated with anti-HA (1 μg per 10 μL beads) for 1 hour in PEST-3% BSA and subsequently washed twice in PBST-0.1% BSA. IVT-expressed protein was incubated with the beads on a rotator for 30 mins. […] IVT-containing secondary protein was added to the mixture and incubation allowed for 1 hour. Beads were finally washed thrice in PBST-0.1% BSA and thrice with PBS, and bound proteins eluted by resuspension in 20 μL SDS-PAGE loading buffer and incubation at 95° C. for 5 minutes. Where required, blank IVT extract (no template DNA added) was used as control. The eluates were subjected to electrophoresis, transferred to nitrocellulose membranes and probed for p53 with horseradish peroxidise conjugated DO1 antibody (Santa Cruz) or for HDM2 with anti-HA antibody followed by rabbit anti-mouse (Dakocytomation).
(§2) Protein G beads (Invitrogen) were incubated with anti-HA (1 μg per 10 μL beads) for 1 hour in PBST-3% BSA and subsequently washed twice in PBST-0.1% BSA. IVT expressed wild-type or mutant HDM2 was incubated with the beads on a rotator for 30 mins. […] IVT-expressed p53 was added to the mixture and incubation allowed for 1 hour. Beads were finally washed thrice in PBST-0.1% BSA and thrice with PBS, and bound proteins eluted by resuspension in 20 μL SDS-PAGE loading buffer and incubation at 95° C. for 5 minutes. […]

HDM2 M62A = target: T2, HDM2 M62A (Homo sapiens, UniProt Q00987, M62A); test: p53 reporter assay in p53/HDM2-null DKO cells, HDM2 M62A; type: cell-based; details: 20 μM
T2 construct: expressed in transfected cells; host or cells: DKO mouse embryonic fibroblasts (A12); HCT116 p53+/+ (A28)
Protocol: (§3) DKO (p53/HDM2 null) cells were maintained in Dulbecco's modified Eagle's medium (DMEM) with 10% foetal calf serum (FCS) and 1% penicillin/streptomycin. The cells were seeded at 1.0×10^5 cells/well in 6-well plates, 24 hours prior to transfection. […] In all cases, the total amount of plasmid DNA transfected per well was equilibrated by addition of the parental vector pcDNA3.1a(+).
(§4) DKO cells were harvested 24 hours after transfection and […] activities were assessed using the Dual-light System (Applied Biosystems) according to the manufacturer's protocol. The β-galactosidase activity was normalized with luciferase activity for each sample. To check for expression levels of relevant proteins via Western blot, 2.5 μg of the cell lysates were subjected to electrophoresis, transferred to nitrocellulose membranes and probed for p53 with horseradish peroxidise conjugated DO1 antibody, for HDM2 and actin with anti-HA antibody and AC15 antibody respectively followed by rabbit anti-mouse.
(§5) Mouse embryonic fibroblast p53/Mdm2 double-knockout (DKO) cells (a kind gift from Guillermina Lozano) and H1299 p53^−/− cells were maintained in Dulbecco's modified Eagle's medium (DMEM) with 10% (v/v) foetal calf serum (FCS) and 1% (v/v) penicillin/streptomycin. The cells were seeded at 1.0×10^5 cells/well in 6-well plates, 24 hours prior to transfection. […]

wild-type HDM2 = target: T3, wild-type HDM2 (Homo sapiens, UniProt Q00987); test: p53 reporter assay in p53/HDM2-null DKO cells, wild-type HDM2; type: cell-based; details: 20 μM
T3 construct: expressed in transfected cells; host or cells: H1299 p53-/- cells (A5); mouse embryonic fibroblast p53/Mdm2 double-knockout (DKO) cells (A7)
Protocol: as §3, §4, §5

[6] = target: T4, HDM2 M62A-p53 interaction (Homo sapiens, UniProt Q00987, M62A); test: In vitro pull-down (co-immunoprecipitation, Western blot), HDM2 M62A; type: biochemical; details: 10 μM
T4 construct: made in house; host or cells: cell-free in vitro transcription-translation (IVT)
Protocol: as §1, §2

[7] = target: T5, HDM2 Q24R-p53 interaction (Homo sapiens, UniProt Q00987, Q24R); test: In vitro pull-down (co-immunoprecipitation, Western blot), HDM2 Q24R; type: biochemical; details: 10 μM
T5 construct: made in house; host or cells: cell-free in vitro transcription-translation (IVT)
Protocol: as §1, §2

T4 sequence (Q00987 whole entry M62A): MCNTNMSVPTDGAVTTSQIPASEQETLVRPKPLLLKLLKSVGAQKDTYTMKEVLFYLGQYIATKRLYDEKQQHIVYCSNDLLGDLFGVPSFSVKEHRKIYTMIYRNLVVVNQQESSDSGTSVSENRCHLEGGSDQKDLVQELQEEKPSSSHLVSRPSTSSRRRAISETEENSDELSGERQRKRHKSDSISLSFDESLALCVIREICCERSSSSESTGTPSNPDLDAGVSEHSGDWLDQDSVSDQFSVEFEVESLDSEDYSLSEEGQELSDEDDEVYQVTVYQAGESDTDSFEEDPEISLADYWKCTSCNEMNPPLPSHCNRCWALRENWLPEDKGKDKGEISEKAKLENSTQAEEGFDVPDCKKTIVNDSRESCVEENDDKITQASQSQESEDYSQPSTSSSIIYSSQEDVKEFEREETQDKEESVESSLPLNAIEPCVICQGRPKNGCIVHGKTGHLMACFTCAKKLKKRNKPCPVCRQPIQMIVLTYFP
T5 sequence (Q00987 whole entry Q24R): as the sequence (Q00987 whole entry M62A) above, with Q24R, A62M counted along it
Sequence of purified HDM2 (amino acids 1-125) M62A (human) (Q00987 1-125 M62A limits assumed): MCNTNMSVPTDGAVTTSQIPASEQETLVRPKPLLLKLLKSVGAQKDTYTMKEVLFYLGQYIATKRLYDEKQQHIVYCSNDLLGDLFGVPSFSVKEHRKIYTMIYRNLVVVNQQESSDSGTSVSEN
T1 sequence (Q00987 whole entry): as the sequence (Q00987 whole entry M62A) above, with A62M counted along it
T3 sequence (Q00987 whole entry): as the sequence (Q00987 whole entry M62A) above, with A62M counted along it
T2 sequence (Q00987 whole entry M62A): as the sequence (Q00987 whole entry M62A) above
Sequence of purified HDM2 (amino acids 1-125) P20L (human) (Q00987 1-125 P20L limits assumed): as the sequence (Q00987 1-125 M62A limits assumed) above, with P20L, A62M counted along it
Sequence of purified HDM2 (amino acids 1-125), wild-type (human) (Q00987 1-125 limits assumed): as the sequence (Q00987 1-125 M62A limits assumed) above, with A62M counted along it
Sequence of purified HDM2 (amino acids 1-125) Q24R (human) (Q00987 1-125 Q24R limits assumed): as the sequence (Q00987 1-125 M62A limits assumed) above, with Q24R, A62M counted along it

Compound	Kd [1]	Kd [2]	Kd [3]	Kd [4]	effect on p53 binding to immobilised HDM2 (Western blot) [5]	p53 activity restored, of that seen in absence of HDM2 co-transfection (HDM2 M62A)	p53 activity restored, of that seen in absence of HDM2 co-transfection (wild-type HDM2)	effect on p53 binding to immobilised HDM2 (Western blot) [6]	effect on p53 binding to immobilised HDM2 (Western blot) [7]
p53 peptide	10.4 nM	29.6 nM	17.2 nM	13.9 nM					
CC(=O)N[C@H](C(=O)N[C@@H](CO)C(=O)N[C@@H](Cc1ccccc1)C(=O)N[C@]1(C)CCCCCCC=CCCC[C@@](C)(C(N)=O)NC(=O)[C@H](CC(C)C)NC(=O)[C@H](CC(C)C)NC(=O)[C@H](C)NC(=O)[C@H](Cc2c[nH]c3cc(Cl)ccc23)NC(=O)[C@H](Cc2ccc(O)cc2)NC(=O)[C@H](CCC(=O)O)NC1=O)[C@@H](C)O [MO11]					showed inhibition of p53 binding	47%	51%	showed inhibition of p53 binding; also recorded: abrogate the mutant HDM2-p53 interaction as efficiently as Nutlin inhibits the wildtype HDM2-p53 interaction	showed inhibition of p53 binding; also recorded: abrogate the mutant HDM2-p53 interaction as efficiently as Nutlin inhibits the wildtype HDM2-p53 interaction
